Source: article PMC7290078, “Agonist bias and agonist‐dependent antagonism at corticotrophin releasing factor receptors” (Pharmacology Research & Perspectives, 2020)
No end group written: not given here.

What was measured:
[1] = target: T1, CRF1 receptor (hCRF1α) (Homo sapiens, UniProt P34998); assay: IP1 accumulation (IP-one Gq) in Cos7 cells transfected with hCRF1α, agonist stimulation; type: cell-based
T1 construct: host or cells: Cos7 cells, transient transfection (PEI), pcDNA3.0/3.1 vector
T1 sequence (P34998 24-415): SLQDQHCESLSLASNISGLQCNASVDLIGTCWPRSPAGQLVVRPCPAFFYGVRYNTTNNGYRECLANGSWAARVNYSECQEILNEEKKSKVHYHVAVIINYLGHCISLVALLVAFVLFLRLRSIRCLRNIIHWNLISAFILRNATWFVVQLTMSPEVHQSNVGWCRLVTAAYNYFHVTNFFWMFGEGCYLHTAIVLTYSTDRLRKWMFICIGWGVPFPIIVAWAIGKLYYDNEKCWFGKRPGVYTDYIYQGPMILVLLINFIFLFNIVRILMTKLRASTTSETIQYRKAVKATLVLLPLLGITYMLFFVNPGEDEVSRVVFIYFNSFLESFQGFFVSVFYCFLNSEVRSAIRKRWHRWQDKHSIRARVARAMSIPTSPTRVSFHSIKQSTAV
Excerpt: Plasmids containing hCRF1α and hCRF2α (GenBank accession numbers AY457172 and AY449734) were obtained from the cDNA Resource Centre (Bloomsburg University) and are referred to as CRF1 and CRF2 in this manuscript. Hemagglutinin (HA) epitope‐tagged human Calcitonin (CT) receptor (CT(a) splice variant) and myc‐tagged human RAMP1 were used as described previously. ^27 HA‐tagged human calcitonin receptor‐like receptor (CLR), N‐terminal FLAG‐tagged human RAMP3 and N‐terminal myc‐tagged human RAMP3 were a gift from Professor David Poyner (Aston University) and Professor Patrick Sexton (Monash University), respectively. […]
Cos7, HEK‐293S, and HEK‐293T cells were cultured as described previously. ^28 , ^29 Cos7 cells were originally supplied by the ATCC to Associate Professor Nigel Birch (University of Auckland). […] For transfection, cells were counted (Countess CounterTM; Life Technologies) and plated at a density of 20 000 cells per well in 96‐well plates. […]
The IP‐one Gq assay kit (Cisbio) was used to quantify accumulated myo‐inositol‐1‐phosphate (IP1), a by‐product of IP3 produced after receptor‐mediated Gαq activation in Cos7 and HEK‐293S cells. […] Fifteen microliters of sample was then transferred to a 384‐well optiplate and read by an Envision plate reader (PerkinElmer). IP1 concentrations were calculated from a standard curve generated in duplicate. […]

[2] = target: T2, CRF2 receptor (hCRF2α) (Homo sapiens, UniProt Q13324); assay: ERK1/2 phosphorylation (AlphaLISA Surefire Ultra) in Cos7 cells transfected with hCRF2α; type: cell-based
T2 construct: host or cells: Cos7 cells, transient transfection (PEI), pcDNA3.0/3.1 vector
T2 sequence (Q13324 1-411): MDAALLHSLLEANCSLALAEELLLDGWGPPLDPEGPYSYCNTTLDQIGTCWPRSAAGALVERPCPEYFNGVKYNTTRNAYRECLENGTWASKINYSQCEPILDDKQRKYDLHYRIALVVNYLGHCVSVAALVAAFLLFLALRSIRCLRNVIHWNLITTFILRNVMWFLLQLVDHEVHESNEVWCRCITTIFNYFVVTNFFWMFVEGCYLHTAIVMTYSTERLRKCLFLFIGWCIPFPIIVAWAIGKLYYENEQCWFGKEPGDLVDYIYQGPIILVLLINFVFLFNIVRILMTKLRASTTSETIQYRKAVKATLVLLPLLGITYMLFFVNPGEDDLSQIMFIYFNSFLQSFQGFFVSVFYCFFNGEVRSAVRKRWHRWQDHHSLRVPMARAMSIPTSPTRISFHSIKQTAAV
Excerpt: Plasmids containing hCRF1α and hCRF2α (GenBank accession numbers AY457172 and AY449734) were obtained from the cDNA Resource Centre (Bloomsburg University) and are referred to as CRF1 and CRF2 in this manuscript. Hemagglutinin (HA) epitope‐tagged human Calcitonin (CT) receptor (CT(a) splice variant) and myc‐tagged human RAMP1 were used as described previously. ^27 HA‐tagged human calcitonin receptor‐like receptor (CLR), N‐terminal FLAG‐tagged human RAMP3 and N‐terminal myc‐tagged human RAMP3 were a gift from Professor David Poyner (Aston University) and Professor Patrick Sexton (Monash University), respectively. N‐terminal FLAG‐tagged human RAMP2 was used as described previously. ^28 All receptors and RAMPs were cloned in pcDNA3.0 or pcDNA3.1 plasmid vectors. All plasmid inserts were sequenced at the Centre for Genomics, Proteomics and Metabolomics (University of Auckland) and the sequences were verified prior to use.
Cos7, HEK‐293S, and HEK‐293T cells were cultured as described previously. ^28 , ^29 Cos7 cells were originally supplied by the ATCC to Associate Professor Nigel Birch (University of Auckland). HEK‐293S cells were a gift from Professor David Poyner (Aston University) and HEK‐293T cells a gift from Professor John Taylor (University of Auckland). Briefly, all cell lines were cultured in Dulbecco's Modified Eagle Medium (DMEM) supplemented with 8% heat inactivated fetal bovine serum (FBS) and maintained in a humidified incubator at 37°C with 5% CO2. For transfection, cells were counted (Countess CounterTM; Life Technologies) and plated at a density of 20 000 cells per well in 96‐well plates. The cells were transiently transfected 48 hours prior to assaying using polyethylenimine (PEI), as described previously. ^28 , ^29 In all experiments a total of 0.25 μg DNA was transfected per well. In the majority of experiments 0.25 μg DNA of receptor‐containing plasmid or the pcDNA3.1 plasmid without an insert was used. For experiments involving RAMPs, 0.125 μg of receptor DNA and 0.125 μg of RAMP‐containing plasmid DNA were transfected to give a 1:1 ratio of receptor to RAMP. Where the RAMP or receptor were transfected alone, the ratio of DNA was made up with the pcDNA3.1 plasmid.
The AlphaLISA Surefire Ultra extracellular signal‐regulated kinase 1/2 (ERK1/2) phosphorylation (pERK1/2) assay kit (PerkinElmer Life and Analytical Sciences) was used to measure pERK1/2 in cell lysates after agonist stimulation. For these assays 20% FBS was used as a positive control. Following peptide stimulation at 37°C for 0‐30 minutes with 100 nmol/L agonist (time courses) or 7 minutes with media alone or 1 pmol/L to 1 µmol/L agonist, media was removed and 20 µL of lysis buffer added to each well. Plates were shaken at room temperature for 10 minutes. Each sample was then transferred to a 384‐well optiplate and pERK1/2 measurement performed as per the manufacturer's instructions. Samples were read using an Envision plate reader (PerkinElmer).
In all experiments the position of peptides and antagonists (pharmacology) or transfected receptors (ELISAs) on assay plates was randomized during each independent experiment, which are independent biological replicates. In all cases, duplicate, triplicate, or quadruplicate technical replicates were conducted for each independent experiment. For transfected cell experiments, each independent experiment involved plating cells from a distinct passage, separate transient transfection and separate signaling or ELISA assays, constituting experimental n. For ERK1/2 and IP1 signaling pathways, time‐course experiments were first conducted with a saturating concentration of UCN1 to determine the optimal time to conduct concentration‐response experiments. Concentration‐response experiments were then conducted with the same experimental design for cAMP, ERK1/2, and IP1 pathways. […] All group sizes were designed to be equal at n = 5 independent experiments.

Substance	EC50 ([1]; IP1, hCRF1α, Cos7, 90 min at 37°C, 50 mmol/L LiCl, 1 pmol/L to 10 µmol/L agonist, mean ± SEM, n = 5)	EC50 ([2]; pERK1/2, hCRF2α, Cos7, 7 min at 37°C, 1 pmol/L to 1 µmol/L agonist, mean ± SEM, n = 5)	concentration‐dependent increase in IP1 accumulation ([1]; CRF1 receptor)	ability to produce pERK1/2, comparison of peptides ([2]; CRF2 receptor)	concentration‐dependent increase in pERK1/2 ([2]; CRF2 receptor)	Hill slope ([2]; pERK1/2, CRF2 receptor)	Δlog(τ/K A) (relative efficacy) ([2]; pERK1/2, hCRF2α, reference agonist UCN1, mean ± SEM, n = 5)	ΔΔlog(τ/K A) (signaling bias) ([2]; pERK1/2 relative to cAMP, hCRF2α, reference agonist UCN1, mean ± SEM, n = 5)
DNPSLSIDLTFHLLRTLLELARTQSQRERAEQNRIIFDSV-NH2 [UCN1]	7.76 nM	5.62 nM	–	–	–	–	–	–
IVLSLDVPIGLLQILLEQARARAAREQATTNARILARVGHC-NH2 (C-terminus assumed) [UCN2]	–	–	not UCN2 and UCN3 exhibited a concentration‐dependent increase	no significant difference	concentration‐dependent increases	0.23	−0.19 ± 0.42	0.36 ± 0.46
